Measured values taken from PubChem BioAssay AID1053159 (Broad Institute, 2014).

Test system: HepG2 PCSK9 mRNA qRT-PCR, time course 0.5-28 h
Experiment: time-dependent decrease of PCSK9 transcript – cell-based, HepG2, RT-PCR, time course, mechanism study for Trib1 inducer project, late-stage follow-up (AID 1053159)
Conditions: dose 2.5; hits give low values

Q: How did the relative PCSK9 expression turn out when `CN1C(=O)c2cc(NC(=O)c3ccc(C(F)(F)F)cc3)ccc2OC[C@@H]2O[C@H](CC(=O)NC3Cc4ccccc4C3)CC[C@@H]21` was run?
A: 19%
